Experimental data from patent US10576145B2, “CD200 inhibitors and methods of use thereof” (REGENTS OF THE UNIVERSITY OF MINNESOTA, priority 2014, dated 2020).
“Also recorded” adds a separate entry of the source.

Tests used:
EMT6 tumor bearing mice = experiment: EMT6 breast carcinoma model: tumor lysate + CpG +/- competitive inhibitor, survival; assay type: in vivo, BALB/c mice
Experimental: FIG. 6. Percent survival of mice inoculated with 1×10^6 EMT6 cells. To determine if our competitive inhibitors worked in other tumor models, mice were inoculated in the fat pad with 1×10^6 EMT6 cells. Specifically, mice were vaccinated with 65 μg of EMT6 tumor lysates+50 μg of adjuvant CpG and 50 μg of different completive inhibitors (6059, 4004, 4013 and 6061) and monitored for survival. Saline and tumor lysate+adjuvant CpG were used as controls.
FIGS. 19A-19B. Select CD200 antagonists enhance survival. (FIG. 19A) EMT6 tumor bearing mice were vaccinated with tumor lysate, CpG+/−CD200 antagonist 4004, 4013 or 6059. […] Log-rank analysis was used for survival.
Tumors were implanted into female C57BL/6 mice (6-8 wk old) (Jackson Laboratory) and maintained in a pathogen-free facility according to the guidelines of the University of Minnesota Animal Care and Use Committee. The GL261 orthotopic transplant model was established in C57BL/6 (B6) mice by inoculation with 15,000 GL261-Luc^+ cells in 1 μl of saline. Tumors were implanted stereotactically into the right striatum; coordinates were 2.5 mm lateral, 0.5 mm anterior of bregma, and 3 mm deep from the cortical surface of the brain^19. Tumor burden was determined by bioluminescent imaging. Light emitted from the tumors was quantified using Living Image software (Xenogen) and expressed as photons per second per centimeter squared per steradian (p/s/cm^2/sr). GL261 cells for tumor lysate vaccines were cultured in neural stem cell media consisting of DMEM/F12 (1:1) with L-glutamine, sodium bicarbonate, penicillin/streptomycin (100 U/ml), B27 and N2 supplements (Life Technologies), and 0.1 mg/ml Normocin (Invivogen). Cultures were maintained at 5% 02 and supplemented with 20 ng/ml EGF and FGF semiweekly (R&D Systems, Minneapolis, Minn.). […] Mice were euthanized when tumors reached 1000 mm^3. […] Tumor cells used to establish both models were cultured in DMEM containing 10% FBS, penicillin/streptomycin (100 U/ml), and 0.1 mg/ml Normocin (Invivogen) in atmospheric oxygen.

[1] = system: naïve splenocytes exposed to GL261 cells; experiment: GL261 cells incubated with naive splenocytes in trans-well plate +/- CD200R antagonist: MDSC expansion and IFN-γ; assay type: cell-based, mouse
Experimental: FIGS. 17A-17B. CD200R antagonist blocks MDSC expansion and tumor suppressive effects. (FIG. 17A) Murine glioma GL261 was incubated with naïve splenocytes in a trans-well plate+/−CD200R antagonist and analyzed for MDSC expansion and cytokine production. (FIG. 17B) Naïve splenocytes were pulsed with purified CD200+/−CD200R antagonist and analyzed for MDSC expansion and arginase-I production. Error bars are ±SEM, statistical significance was determined by one-way ANOVA, post hoc analysis by Dunn's multiple comparison test, *p<0.05, ** p<0.001.
To determine the level of MDSC expansion when splenocytes were exposed to tumor cells, splenocytes were also harvested and purified as described above; 300,000 splenocytes were plated in the bottom of 24 well transwell plates containing a 0.4-micron filter. Following 24 hr incubation, 30,000 GL261 cells were plated on the transwell insert with and without the CD200R antagonist 6059. Total volume was 700 μl/well so that the insert was submerged in the media within the wells. Cells were incubated for 5 days, harvested, and stained with CD11b and GR-1 to determine MDSC levels. In another set of wells, OVA was added to the wells 24 hours after the splenocytes were plated. Following another 72 hr incubation, 3×10^5 purified CD8 T-cells isolated from an OT-I mouse and were added to the wells and incubated for an additional 72 hrs. […]

non-tumor bearing mice = experiment: Vaccination of non-tumor bearing mice with OVA + glioma-derived exosomes + antagonist; assay type: in vivo
Experimental: FIGS. 12A-12C. […] Tumor and non-tumor bearing mice were vaccinated with OVA+Poly:ICLC+/−the CD200R antagonist 6059 and analyzed for FIG. 12A) SIINFEKL/Kb+CD8+ T cell expansion (‘SIINFEKL’ disclosed as SEQ ID NO: 11). FIG. 12B) Lymphocytes were harvested and stimulated with SIINFEKL peptide (SEQ ID NO: 11). Supernatants were analyzed for TNFα and IFNγ secretion. FIG. 12C) The antagonist 6059 was added to OVA+exosomes. Error bars indicate +/−SEM (n=4/group; *P<0.05; by t-test). FIGS. 12A-12C discloses ‘SIINFEKL’ disclosed as SEQ ID NO: 11.
Whether the different antagonists described by Gorczynski et. al. (J Surg Res 2008; 145(1): 87-96) could modulate or reverse the suppressive effects of the tumor microenvironment was also investigated. It was concluded that different antagonists either act through different CD200R isoforms or have different biological effects on the same receptor. These conclusions were supported by experiments where splenocytes were pulsed with OVA+selected CD200R antagonists (6061, 6069, 4004, 4006, 4013) for 24 hours. The splenocytes were then washed and cultured for 48 hours with the addition of OT-1 T cells. The cultures were then assessed for cytokine production using a flow cytometric bead array. […] Other antagonists were similarly evaluated.

CD200R = target: T1, CD200R (Mus musculus, UniProt Q9ES57); conditions: reportedly; cited from earlier work
T1 sequence (Q9ES57 26-326): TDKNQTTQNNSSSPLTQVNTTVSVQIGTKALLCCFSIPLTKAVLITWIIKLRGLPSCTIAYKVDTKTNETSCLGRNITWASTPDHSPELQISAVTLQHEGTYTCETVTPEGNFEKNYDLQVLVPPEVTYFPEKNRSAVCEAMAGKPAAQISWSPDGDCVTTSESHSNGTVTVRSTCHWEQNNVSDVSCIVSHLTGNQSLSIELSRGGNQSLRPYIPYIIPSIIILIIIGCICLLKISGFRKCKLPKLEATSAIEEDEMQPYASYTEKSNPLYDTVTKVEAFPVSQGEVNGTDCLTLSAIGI

**Q.** With NTIGDGGCY [Antagonist 6059] as the sequence, how does the Survival (EMT6 tumor bearing mice) read?
**A.** The Survival was “results translated to a breast carcinoma (EMT6) model; also recorded: significantly extended survival benefit”.

**Q.** And the “IFN-γ production of OT-I CD8 T-cells in response to OVA” value ([1]; trans-well with GL261 cells)?
**A.** Its value is “blocked both the expansion of MDSCs as well as the production of IFN-γ”.

**Q.** And the “Expansion of CD11b+Gr1+ MDSC induced by GL261 cells” value ([1]; trans-well, 5 days)?
**A.** Its value is “blocked both the expansion of MDSCs”.

**Q.** What about the “Suppression induced by glioma-derived exosomes” value (non-tumor bearing mice) of the same sequence?
**A.** Its value is “partially reversed the suppression induced by exosomes”.

**Q.** And the “Competition with CD200 for binding to CD200R” value (CD200R)?
**A.** Its value is “outcompetes the intact CD200 protein for binding to the CD200R”.
